The results in this text go back to patent US9056922B2, “Chimeric relaxin polypeptides comprising an A and B chain derived from different relaxin family peptides” (HOWARD FLOREY INSTITUTE OF EX[…] MEDICINE, priority 2007, dated 2015).

The target in one test is T1, LGR7 (RXFP1) receptor (Homo sapiens, UniProt Q9HBX9).
T1 construct: expressed in transfected cells; host or cells: HEK-293T
T1 sequence (Q9HBX9 1-757): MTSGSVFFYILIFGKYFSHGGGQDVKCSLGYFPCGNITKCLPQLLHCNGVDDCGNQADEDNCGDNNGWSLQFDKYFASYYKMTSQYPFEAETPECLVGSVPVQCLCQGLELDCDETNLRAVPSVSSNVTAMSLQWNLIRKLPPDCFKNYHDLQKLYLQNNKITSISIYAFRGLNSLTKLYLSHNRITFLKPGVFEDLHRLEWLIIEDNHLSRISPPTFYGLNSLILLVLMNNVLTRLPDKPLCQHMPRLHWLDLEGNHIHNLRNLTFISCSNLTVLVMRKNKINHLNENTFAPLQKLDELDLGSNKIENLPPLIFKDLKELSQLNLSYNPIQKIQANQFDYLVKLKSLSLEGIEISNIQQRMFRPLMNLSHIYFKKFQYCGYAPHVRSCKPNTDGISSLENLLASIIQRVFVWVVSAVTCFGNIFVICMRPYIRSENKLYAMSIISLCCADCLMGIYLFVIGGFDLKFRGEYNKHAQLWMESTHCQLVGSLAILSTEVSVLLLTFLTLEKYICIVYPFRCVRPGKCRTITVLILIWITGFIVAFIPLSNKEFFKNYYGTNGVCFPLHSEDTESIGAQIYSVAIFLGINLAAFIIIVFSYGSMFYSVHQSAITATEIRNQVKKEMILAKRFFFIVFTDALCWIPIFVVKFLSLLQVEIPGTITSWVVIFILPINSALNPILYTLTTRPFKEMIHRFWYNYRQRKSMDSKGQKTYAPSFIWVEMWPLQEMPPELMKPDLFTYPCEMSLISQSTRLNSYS
Briefly: cAMP reporter gene assay (pCRE-β-galactosidase) in LGR7-expressing cells. The format is cell-based. The procedure:
In the present study the inventors investigated the ability of chimeric polypeptides generated herein (see Example 1) to stimulate cAMP production in cells expressing either the LGR7 or LGR8 receptor.
Receptor cAMP signaling was assessed using a cAMP reporter gene assay. […] Transfected cells were incubated with increasing concentrations of peptides for 6 hrs after which the media was aspirated and the cells frozen at −80° C. overnight. The amount of cAMP-driven β-galactosidase expression in each well was determined by incubating the cells in 25 μl of lysis buffer (10 mM Na2HPO4, pH 8.0, 0.2 mM MgSO4, 0.01 mM MnCl2) for 10 minutes, 100 μl of assay buffer (100 mM Na2HPO4, pH 8.0, 2 mM MgSO4, 0.1 mM MnCl2, 0.5% Triton X-100, 40 mM B-mercaptoethanol) for a further 10 minutes before 25 μL of enzyme substrate solution (1 mg/ml chlorophenol red B-D galactopyranoside (Roche) in 100 mM Na2HPO4, pH 8.0, 2 mM MgSO4, 0.1 mM MnCl2) was added to each well and the plate incubated for 3 h or overnight. The absorbance of each well was determined at 570 nm using a Ceres UV900C plate reader (Bio-Tek Instruments, Vermont, USA).
All experiments were repeated at least three times with triplicate determinations within each assay.
Data are presented as the mean±S.E.M. of […] (number performed shown in parentheses in Table 1) performed in triplicate.
Background: In a reporter assay the amount or activity of a reporter protein is the signal.

The target in a further test is LGR8 (RXFP2) receptor (Homo sapiens, UniProt Q8WXD0). In words: cell-based.
The target in the next test is T2, LGR7 receptor (Homo sapiens, UniProt Q9HBX9).
T2 construct: expressed in transfected cells; host or cells: HEK293T
T2 sequence (Q9HBX9 1-757): T1 sequence (Q9HBX9 1-757)
In words: Whole cell [125I]-labelled H2 relaxin competition binding assay.

Each structure is given as a SMILES string. A value given as a limit tells only on which side of the number the result lay.

Sequence of LGR8 (RXFP2) receptor (Q8WXD0 whole entry): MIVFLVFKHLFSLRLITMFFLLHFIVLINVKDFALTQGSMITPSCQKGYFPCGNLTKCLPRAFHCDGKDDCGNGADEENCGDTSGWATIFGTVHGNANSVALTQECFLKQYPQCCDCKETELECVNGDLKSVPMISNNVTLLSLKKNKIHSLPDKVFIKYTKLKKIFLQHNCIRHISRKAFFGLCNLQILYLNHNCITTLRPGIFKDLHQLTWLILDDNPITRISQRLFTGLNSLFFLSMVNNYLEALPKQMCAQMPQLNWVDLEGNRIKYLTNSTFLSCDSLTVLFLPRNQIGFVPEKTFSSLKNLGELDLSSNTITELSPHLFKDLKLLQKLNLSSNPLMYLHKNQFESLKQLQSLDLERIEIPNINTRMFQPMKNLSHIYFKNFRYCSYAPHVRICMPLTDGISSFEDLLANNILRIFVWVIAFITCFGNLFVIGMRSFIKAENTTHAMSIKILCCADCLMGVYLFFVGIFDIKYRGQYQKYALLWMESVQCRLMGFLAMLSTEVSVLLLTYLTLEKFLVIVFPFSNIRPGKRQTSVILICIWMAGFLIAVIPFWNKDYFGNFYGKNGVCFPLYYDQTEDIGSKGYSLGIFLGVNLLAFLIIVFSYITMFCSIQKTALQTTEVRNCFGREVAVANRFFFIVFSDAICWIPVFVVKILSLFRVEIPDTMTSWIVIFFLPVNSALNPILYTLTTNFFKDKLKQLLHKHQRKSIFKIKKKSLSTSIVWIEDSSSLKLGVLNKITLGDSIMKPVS
Procedure for LGR7 receptor: Briefly, HEK293T cells were plated out into 24-well plates (450,000 cells per well) or 48-well plates (225,000 cells per well), and transfected with pcDNA3.1/zeo plasmid containing the receptor of interest the following day as described above in Example 2. […] Non-specific binding was determined by addition of excess unlabelled relaxin (500 nM). Data were analysed using GraphPad Prism.
Source text for LGR8 (RXFP2) receptor: Data are presented as the mean±S.E.M. of at least 1 experiment (number performed shown in parentheses in Table 1) performed in triplicate.

Take `CC[C@H](C)[C@@H]1NC(=O)[C@H](C)NC(=O)[C@H]([C@@H](C)CC)NC(=O)[C@H](CCC(N)=O)NC(=O)[C@H](C)NC(=O)[C@H](CCCNC(=N)N)NC(=O)[C@H](C(C)C)NC(=O)[C@H](CC(C)C)NC(=O)[C@H](CCC(=O)O)NC(=O)[C@H](CCCNC(=N)N)NC(=O)CNC(=O)[C@@H](NC(=O)[C@H](CC(C)C)NC(=O)[C@H](CCCCN)NC(=O)[C@@H](NC(=O)[C@@H](NC(=O)[C@H](CCC(=O)O)NC(=O)[C@H](CCC(=O)O)NC(=O)[C@H](CCSC)NC(=O)[C@H](Cc2c[nH]c3ccccc23)NC(=O)[C@H](CO)NC(=O)[C@@H](N)CC(=O)O)C(C)C)[C@@H](C)CC)CSSC[C@@H]2NC(=O)[C@@H](NC(=O)[C@H](CO)NC(=O)[C@H](CO)NC(=O)[C@H](CO)NC(=O)[C@H](CC(C)C)NC(=O)CNC(=O)[C@H](C)NC(=O)[C@H](CC(C)C)NC(=O)[C@@H](NC(=O)[C@@H](N)CC(=O)O)C(C)C)CSSC[C@H](NC(=O)CNC(=O)[C@H](Cc3c[nH]c4ccccc34)NC(=O)[C@H](CCCCN)NC2=O)C(=O)N[C@@H](CO)C(=O)N[C@@H](CCCCN)C(=O)N[C@@H](CO)C(=O)N[C@@H](CCC(=O)O)C(=O)N[C@@H]([C@@H](C)CC)C(=O)N[C@@H](CO)C(=O)N[C@@H](CO)C(=O)N[C@@H](CC(C)C)C(=O)N[C@H](C(=O)O)CSSC[C@@H](C(=O)NCC(=O)N[C@@H](CCSC)C(=O)N[C@@H](CO)C(=O)N[C@H](C(=O)N[C@@H](Cc2c[nH]c3ccccc23)C(=O)N[C@@H](CO)C(=O)O)[C@@H](C)O)NC1=O` [H2-B/H3-A]: the EC50 (commonly the concentration giving half of the maximal effect) at LGR7 (RXFP1) receptor is 7.94 nM; on LGR8 (RXFP2) receptor, 4570 nM. Further, affinity on LGR7 receptor was put at a Ki of 158 nM.

As for `CC[C@H](C)[C@@H]1NC(=O)[C@H](C)NC(=O)[C@H]([C@@H](C)CC)NC(=O)[C@H](CCC(N)=O)NC(=O)[C@H](C)NC(=O)[C@H](CCCNC(=N)N)NC(=O)[C@H](C(C)C)NC(=O)[C@H](CC(C)C)NC(=O)[C@H](CCC(=O)O)NC(=O)[C@H](CCCNC(=N)N)NC(=O)CNC(=O)[C@@H](NC(=O)[C@H](CC(C)C)NC(=O)[C@H](CCCCN)NC(=O)[C@@H](NC(=O)[C@@H](NC(=O)[C@H](CCC(=O)O)NC(=O)[C@H](CCC(=O)O)NC(=O)[C@H](CCSC)NC(=O)[C@H](Cc2c[nH]c3ccccc23)NC(=O)[C@H](CO)NC(=O)[C@@H](N)CC(=O)O)C(C)C)[C@@H](C)CC)CSSC[C@@H]2NC(=O)[C@@H](NC(=O)[C@H](Cc3ccc(O)cc3)NC(=O)[C@H](CCCNC(=N)N)NC(=O)[C@H](C)NC(=O)[C@@H]3CCCN3C(=O)[C@H](CC(N)=O)NC(=O)[C@@H](NC(=O)[C@H](C)NC(=O)[C@H](C)NC(=O)[C@H](C)N)[C@@H](C)O)CSSC[C@H](NC(=O)CNC(=O)[C@H](CO)NC(=O)[C@H](CC(C)C)NC2=O)C(=O)N[C@@H]([C@@H](C)O)C(=O)N[C@@H](CCC(N)=O)C(=O)N[C@@H](CCC(N)=O)C(=O)N[C@@H](CC(=O)O)C(=O)N[C@@H](CC(C)C)C(=O)N[C@@H](CC(C)C)C(=O)N[C@@H]([C@@H](C)O)C(=O)N[C@@H](CC(C)C)C(=O)N[C@H](C(=O)N2CCC[C@H]2C(=O)N[C@@H](Cc2ccc(O)cc2)C(=O)O)CSSC[C@@H](C(=O)NCC(=O)N[C@@H](CCSC)C(=O)N[C@@H](CO)C(=O)N[C@H](C(=O)N[C@@H](Cc2c[nH]c3ccccc23)C(=O)N[C@@H](CO)C(=O)O)[C@@H](C)O)NC1=O` [H2-B/INSL3-A], the EC50 at LGR7 (RXFP1) receptor is above 1000 nM; at LGR8 (RXFP2) receptor, below 1000 nM. On LGR7 receptor, the affinity, expressed as Ki, was 617 nM.
